experiment: method code SF-AS, from DOI: 10.1080/02772249909358822

| SMILES | logP |
| --- | --- |
| COP(=O)(OC)ON=C(C#N)c1csc2ccccc12 | 0.76 |
| CCOP(=O)(OCC)ON=C(C#N)c1csc2ccccc12 | 0.56 |
| CCOP(=S)(OCC)ON=C(C#N)c1ccc(OC)c(OC)c1 | -0.19 |
| CC(C)OP(=S)(O/N=C(/C#N)c1ccccc1)OC(C)C | 2.07 |
| CCOP(=S)(OCC)ON=C(C#N)c1csc2ccccc12 | 2.56 |
| COc1ccc(C(C#N)=NOP(=S)(OC(C)C)OC(C)C)cc1OC | 0.47 |
| COP(=S)(OC)ON=C(C#N)c1csc2ccccc12 | 1.94 |
| CC(C)OP(=O)(ON=C(C#N)c1ccc(F)cc1)OC(C)C | -0.43 |
| COP(=O)(OC)O/N=C(/C#N)c1ccccc1 | -1.01 |
| CC(C)OP(=O)(ON=C(C#N)c1csc2ccccc12)OC(C)C | 1.56 |
| COC(=O)c1oc2ccccc2c1C(C#N)=NOP(=O)(OC(C)C)OC(C)C | 1.36 |
| CC(C)OP(=O)(ON=C(C#N)c1ccc(Cl)cc1)OC(C)C | -0.2 |
| CCCCOP(=O)(OCCCC)ON=C(C#N)c1csc2ccccc12 | 2.73 |
| CCCOP(=O)(OCCC)ON=C(C#N)c1csc2ccccc12 | 1.67 |
| CCOP(=S)(OCC)ON=C(C#N)c1ccc(F)cc1 | 0.35 |
| COc1ccc(C(C#N)=NOP(=O)(OC(C)C)OC(C)C)cc1OC | -0.38 |
| CC(C)OP(=O)(O/N=C(/C#N)c1ccccc1)OC(C)C | 0.06 |
| COP(=O)(OC)ON=C(C#N)c1ccc(F)cc1 | -1.08 |
| CCOP(=S)(OCC)ON=C(C#N)c1ccc(Cl)cc1 | 0.47 |

Source: the SangsterLogP compilation
